{"source": "paper PMC12402836", "about": "“Taste Profile and Relative Bioavailability of Tovorafenib Powder for Oral Suspension and Food Effect of the Tovorafenib Tablet in Healthy Participants” (Clinical Pharmacology in Drug Development, 2025)", "key": {"[1]": {"test": "Relative bioavailability and food-effect pharmacokinetics (Part 2, 3-period crossover)", "format": "in vivo, human", "description": "In Part 2 of the study, 12 participants were randomized to 1 of 3 sequences (T[fast]S[fast]T[fed], S[fast]T[fed]T[fast], and T[fed]T[fast]S[fast]) (Figure S1B). In each treatment period, tovorafenib was administered on Day 1 as a tablet under fasted (T[fast]), as PfOS under fasted (S[fast]), or as a tablet after a high‐fat meal (T[fed]). Tovorafenib was administered in the morning after an overnight fast of 10 hours or more. For treatment groups T[fast] and S[fast], tovorafenib was given under fasted conditions (ie, no breakfast), while for the T[fed] group, it was administered 30 minutes after the start of a high‐fat meal. A total of 240 mL of water was administered with each tovorafenib tablet. For the PfOS, immediately after administration, the dosing vessel was rinsed with water, and participants were required to consume the rinse solution and additional water up to a total volume of 240 mL (including the dosing volume and volume used to rinse the dosing vessel). If needed, additional water in 50‐mL aliquots was provided and recorded but was not classed as a protocol deviation. Participants were required to fast for 4 hours or more after single‐dose administration of the tovorafenib tablet. The composition of the high‐fat meal consisted of 800‐1000 calories, of which approximately 54% of calories were from fat. To be eligible for dosing, participants were required to consume at least 90% of the meal provided. Intake of fluids was prohibited 1 hour before dosing until 1 hour after dosing, except for fluid consumed with breakfast before dosing and water for tovorafenib tablet intake. Blood samples were collected at regular intervals (see Blood Collection and Processing for PK Analysis in the Pharmacokinetic Assessments section for more details) for PK analysis from before dosing to 120 hours after dosing. […]\nPlasma concentrations of tovorafenib were determined by a validated liquid chromatography with tandem mass spectrometry–based method with a lower limit of quantification of 0.5 ng/mL. […]"}, "[2]": {"test": "Safety assessments (adverse events, laboratory, vital signs, ECG)", "format": "in vivo", "text": "Safety evaluations included analysis of AEs, laboratory variables (hematology, clinical chemistry, and urinalysis), vital signs, electrocardiogram, and a physical examination. AEs were coded using the Medical Dictionary for Regulatory Activities Version 24.0. […] Treatment‐emergent AEs (TEAEs) were summarized by frequency, severity, and relatedness to the study drug. TEAE frequency (the number of TEAEs and the number of participants experiencing a TEAE) was tabulated by system organ class and preferred term. In the per‐participant analyses, a participant having the same event more than once was counted only once."}, "[3]": {"parameters": "method as in PMID 37219686", "conditions": "cited from earlier work"}, "[4]": {"parameters": "method as in PMID 38967715, PMID 39412085", "conditions": "cited from earlier work"}, "relapsed/refractory pLGG": {"test_system": "relapsed/refractory pLGG", "parameters": "method as in PMID 39808502, PMID 37978284", "conditions": "cited from earlier work"}, "[5]": {"test_system": "aldehyde oxidase and cytochrome P450 (CYP) 2C8, CYP3A, CYP2C9, CYP2C19", "parameters": "method as in PMID 38967715, PMID 39412085", "conditions": "in vitro, minor contributions from CYP3A; cited from earlier work"}, "[6]": {"test_system": "CYP2C8, CYP2C9, CYP2C19, CYP3A, CYP1A2, CYP2B6", "parameters": "method as in PMID 38967715, PMID 39412085", "conditions": "at clinically relevant concentrations, cited from earlier work"}, "[7]": {"test_system": "breast cancer resistance protein", "parameters": "method as in PMID 38967715, PMID 39412085", "conditions": "at clinically relevant concentrations; cited from earlier work"}, "[8]": {"conditions": "20-280 mg every 2 days and 400-800 mg every week"}}, "note": "Like-named read-outs stand apart in the source and are kept apart here."}
{"smiles": "C[C@@H](NC(=O)c1ncnc(N)c1Cl)c1ncc(C(=O)Nc2cc(C(F)(F)F)c(Cl)cn2)s1", "note": "[tovorafenib, 6‐amino‐5‐chloro‐N‐[(1R)‐1‐[5‐[[[5chloro‐4‐(trifluoromethyl)‐2‐pyridinyl]amino]carbonyl]‐2‐thiazolyl]ethyl]‐4‐pyrimidinecarboxamide]", "values": [{"measurement": "half-life", "setting": "[1]; human, plasma, oral, range over regimens, 100 and 300 mg, read-out: Mean t1/2 values from the 3 treatment regimens", "value": "62 to 89.5", "unit": "h"}, {"measurement": "AUC0‐last at 300 mg relative to 100 mg", "setting": "[1]; single doses", "value": "~2.5", "unit": "fold"}, {"measurement": "Cmax at 300 mg relative to 100 mg", "setting": "[1]; single doses", "value": "approximately 2.3 fold"}, {"measurement": "Severity of all AEs", "setting": "[2]; 100 mg dose regimens", "value": "mild"}, {"measurement": "Myalgia, events", "setting": "[2]; 300 mg", "value": 10, "unit": "events"}, {"measurement": "Nonserious musculoskeletal AEs, mild", "setting": "[2]; 300 mg", "value": 5, "unit": "participants"}, {"measurement": "Nonserious musculoskeletal AEs, moderate", "setting": "[2]; 300 mg", "value": 3, "unit": "participants"}, {"measurement": "Nonserious musculoskeletal AEs, severe", "setting": "[2]; 300 mg", "value": 4, "unit": "participants"}, {"measurement": "Moderate AEs", "setting": "[2]; 300 mg dose regimens", "value": 7}, {"measurement": "Participants with nonserious musculoskeletal AEs", "setting": "[2]; 300 mg, Period 1", "value": 12, "unit": "participants"}, {"measurement": "Myalgia, participants reporting", "setting": "[2]; 300 mg, [83.3%]", "value": 10, "unit": "participants"}, {"measurement": "TEAEs reported during Part 1", "setting": "[2]; Part 1, sip and spit of PfOS formulations, n = 12", "value": "no TEAEs"}, {"measurement": "Serious AEs or AEs leading to study drug discontinuation", "setting": "[2]; Part 2", "value": "no serious AEs or AEs leading to study drug discontinuation"}, {"measurement": "TEAEs related to tovorafenib", "setting": "[2]; Part 2, all regimens", "value": 60}, {"measurement": "Total TEAEs", "setting": "[2]; Part 2, all regimens", "value": 71}, {"measurement": "Participants reporting TEAEs", "setting": "[2]; Part 2, all regimens, N = 12", "value": 12, "unit": "participants"}, {"measurement": "Laboratory, vital sign, electrocardiogram, physical examination findings", "setting": "[2]; either part of the study", "value": "no clinically significant abnormal"}, {"measurement": "Dose proportionality of peak plasma concentration and exposure", "setting": "[3]; [8]", "value": "roughly dose‐proportional"}, {"measurement": "half-life", "setting": "[3]; [8]", "value": "approximately 70 hours"}, {"measurement": "Median tmax", "setting": "[3]; after dosing", "value": 3, "unit": "h"}, {"measurement": "Mean t1/2", "setting": "[3]; patients, 600 mg, multiple administrations", "value": "approximately 70 hours"}, {"measurement": "Tovorafenib share of total plasma radioactivity exposure", "setting": "[4]; single 100-mg oral dose of [14C]-tovorafenib", "value": 78.7, "unit": "%"}, {"measurement": "Dose recovered in the urine", "setting": "[4]; single oral radiolabeled dose", "value": 27, "unit": "%"}, {"measurement": "Dose recovered unchanged in the feces", "setting": "[4]; single oral radiolabeled dose", "value": 8.6, "unit": "%"}, {"measurement": "Dose recovered unchanged in the urine", "setting": "[4]; single oral radiolabeled dose", "value": 0.2, "unit": "%"}, {"measurement": "Total radiolabeled dose recovered in the feces", "setting": "[4]; single oral radiolabeled dose", "value": 65, "unit": "%"}, {"measurement": "Overall response rate", "setting": "relapsed/refractory pLGG; 76 evaluable patients, 420 mg/m^2 once weekly (600 mg maximum), independent radiology review, RAPNO low-grade glioma criteria", "value": 51, "unit": "%"}, {"measurement": "Median duration of response", "setting": "relapsed/refractory pLGG; FIREFLY-1 arm 1, 420 mg/m^2 once weekly", "value": 13.8, "unit": "months"}, {"measurement": "Metabolizing enzymes", "setting": "[5]", "value": "primarily metabolized by aldehyde oxidase and cytochrome P450 (CYP) 2C8"}, {"measurement": "Effect on CYP1A2 and CYP2B6", "setting": "[6]", "value": "induces"}, {"measurement": "Effect on CYP2C8, CYP2C9, CYP2C19, and CYP3A", "setting": "[6]; in vitro", "value": "both inhibits and induces"}, {"measurement": "Effect on breast cancer resistance protein", "setting": "[7]", "value": "inhibits"}]}
